Data from ChEMBL document CHEMBL3507680, “University of Dundee, Gates Library screen for HepG2 cell viability”.

Experiment: Human HepG2 cell viability assay in 384 well format
Format: toxicity, cell-based
Set-up: dose 125 nL, time 70.5 hour; concentration not given beside the values
Conditions: HepG2 cells, read-out: Inhibition

In order of falling cytotoxicity at 70.5 h:
1. CC(C)c1nc(CN2CCC(CO)CC2)cs1  34.5%
2. OCC1CCCN1c1cc(N2CCc3ccccc3C2)ncn1 (configuration not stated)  31.1%
3. Cn1c(CN2CCOC(c3nc(C(C)(C)C)n[nH]3)C2)nnc1C1CC1 (configuration not stated)  26.5%
4. Cc1nc2ccccc2nc1CN1CCCC1Cn1cccn1 (configuration not stated)  20.6%
5. Cc1nc(C)n(C2CCCN(C(=O)c3cn4c(C)cccc4n3)C2)n1 (configuration not stated)  19.8%
6. Cc1ccc(N2CCCC(NCc3ccc(-n4ccnc4)cc3)C2)nn1 (configuration not stated)  17.4%
7. Cc1nc(CN2CCCC(N(C)CC(=O)Nc3cccnc3)C2)no1 (configuration not stated)  15.1%
8. O=C(c1cc[nH]n1)N1CCC(Nc2cccnn2)CC1  14.8%
9. CCc1nc(CN2CCCN(C(=O)c3cn[nH]c3CC)CC2)cs1  12.4%
10. Cc1ccc2cc(C(=O)NCCn3nc4ccccn4c3=O)[nH]c2c1  8.99%
11. CC(C)c1nccn1C1CCCN(C(=O)c2ccc3[nH]cnc3c2)C1 (configuration not stated)  8.82%
12. Cc1cc(NC(=O)CN2CCOC(Cn3cccn3)C2)n(C)n1 (configuration not stated)  8.66%
13. Cc1n[nH]c(=O)c2c(NC(=O)CN3CCC(O)CC3)oc(C)c12  7.13%
14. Cn1ncc2c1CCCC2NCc1ccc(Cl)s1 (configuration not stated)  4.18%
15. Cc1nc2ccccc2nc1CN(C)CC1CCCN1c1cccnn1 (configuration not stated)  3.52%
16. Cc1cc(C)n(C2CCCN(C(=O)c3cc(C4CC4)on3)C2)n1 (configuration not stated)  0.784%
17. Cc1cc(C)n(C2CCCN(C(=O)c3ccc(NC4CC4)nc3)C2)n1 (configuration not stated)  -0.521%
18. Cn1ncc2c1CCCC2NCc1cc(Br)cs1 (configuration not stated)  -0.587%
19. Cc1nc(C)n(CC2CCCN2CC(=O)Nc2c(C)n[nH]c2C)n1 (configuration not stated)  -1.18%
20. Cc1nc(C)n(CC2CCCCN2CC(=O)N(C)Cc2ccco2)n1 (configuration not stated)  -1.35%
21. Cc1nc(CN2CCCC(N(C)Cc3nnsc3Cl)C2)no1 (configuration not stated)  -1.91%
22. Cc1nc(CN(C)C2CCN(Cc3ccc4c(c3)OCCO4)C2)no1 (configuration not stated)  -2.2%
23. COCc1ccccc1CNC(=O)CN1CCCC1c1noc(C)n1 (configuration not stated)  -2.27%
24. O=C(COc1cccnc1)N1CCCC(n2cccn2)C1 (configuration not stated)  -2.58%
25. COc1ccccc1CC1CCCN(CC(N)=O)C1 (configuration not stated)  -2.63%
26. O=C(Cc1ccccn1)N1CCN(C(=O)CC2CCCCC2)CC1  -2.98%
27. CC(C)(C)C(O)CN1CCN(C(=O)c2cccc3[nH]ncc23)CC1 (configuration not stated)  -3.16%
28. CCc1nnc(CN2CCN(C(=O)c3cc4ccccc4[nH]3)CC2)o1  -3.19%
29. COc1ccccc1OCCNCc1c(C)nn(C)c1N(C)C  -3.32%
30. O=C(CN1CCOC(Cn2cccn2)C1)Nc1ccncc1 (configuration not stated)  -3.63%
31. Cc1ccc(OCCCNC(=O)NC(C)c2nncn2C)cc1 (configuration not stated)  -3.66%
32. c1cnnc(N2CCCC(NCc3ccncc3)C2)c1 (configuration not stated)  -4.07%
33. CC(C)c1nnc2n1CCN(C(=O)c1ccc(OCC(N)=O)cc1)C2  -4.33%
34. CC(=O)N(Cc1noc(C)n1)C1CCN(Cc2cnc(C)s2)C1 (configuration not stated)  -4.39%
35. Cn1cnnc1C1CCCN(C(=O)c2ccc3c(c2)OCCO3)C1 (configuration not stated)  -4.4%
36. Cc1ccc(C(=O)N2CCCC(c3nncn3C)C2)c(C)c1 (configuration not stated)  -4.5%
37. c1cnnc(N2CCCC(NCc3ccc(-n4cccn4)cc3)C2)c1 (configuration not stated)  -4.64%
38. COc1cccc(COCC(=O)N2CCCC(n3cccn3)C2)c1 (configuration not stated)  -4.65%
39. COCCOc1ccc(NC(=O)N2CCCC2c2cccs2)cn1 (configuration not stated)  -4.81%
40. CC(=O)Nc1nc(C(=O)Nc2ccc(F)cc2)cs1  -4.84%
41. Cc1cccc(OCCNC(=O)CN2CCCC2c2noc(C)n2)c1 (configuration not stated)  -4.91%
42. c1cnc(N2CCCC(NCc3ccc(-n4ccnc4)cc3)C2)nc1 (configuration not stated)  -4.91%
43. O=C(c1ccc(Cl)o1)N1CCCN(Cc2cscn2)CC1  -5.01%
44. Cc1ccn2ncc(C(=O)N3CCCC(n4nc(C)nc4C)C3)c2n1 (configuration not stated)  -5.04%
45. CC(C)COC(C)C(=O)NCc1ccccc1 (configuration not stated)  -5.1%
46. c1ccc(-c2cnc(CNCC3CCCN3c3cccnn3)o2)cc1 (configuration not stated)  -5.15%
47. O=C(CCNC(=O)c1ccoc1)Nc1cc(F)ccc1F  -5.4%
48. O=C(CCc1nccs1)N1CCN(c2ccc(Cl)cn2)CC1  -5.57%
49. Cc1nn(C)c(N2CCOCC2)c1CNCc1ccc2c(c1)OCO2  -5.61%
50. CCCc1ccc(C(=O)N2CCn3c(nnc3C(C)C)C2)cc1  -5.86%
51. COc1ccccc1CC1CCCN(CC(=O)N2CCOCC2)C1 (configuration not stated)  -6.05%
52. CC(C)c1nc2n(n1)CC(NCc1ncc(-c3ccccc3)o1)CC2 (configuration not stated)  -6.07%
53. Cc1cccc(OCCCNC(=O)NC(C)c2nncn2C)c1 (configuration not stated)  -6.42%
54. CNc1cc2c(nn1)CCN(C(=O)c1ccoc1)C2  -6.62%
55. O=C(Nc1cc(F)ccc1OCC1CCCO1)c1ccc(O)nc1 (configuration not stated)  -6.69%
56. O=C(CCNC(=O)c1ccoc1)Nc1cccc(F)c1  -6.83%
57. Cc1cccc(CS(=O)(=O)CC(=O)N(C)Cc2ccccc2F)c1  -6.9%
58. Cc1ccc(C(=O)N2CCCN(Cc3cscn3)CC2)o1  -6.95%
59. Cc1nc(NC(=O)CN2CCOC(Cn3cccn3)C2)sc1C (configuration not stated)  -7.06%
60. Cc1ccc(NC(=O)C(C)N2CCCN(c3nccs3)CC2)c(C)c1 (configuration not stated)  -7.1%
61. Cc1noc(C)c1CN(C)CC1CCCN1c1cccnn1 (configuration not stated)  -7.19%
62. COCCOc1ccc(NC(=O)N2CCCC2c2cc(C)no2)cn1 (configuration not stated)  -7.2%
63. Cc1cnn(CC2CCCN2Cc2nc3ccccc3nc2C)c1 (configuration not stated)  -7.74%
64. Cc1ccccc1CN(C)Cc1nc2c(cnn2C)c(=O)[nH]1  -7.81%
65. CCCN1CCN(C(=O)Cc2nc(-c3ccco3)oc2C)CC1  -7.9%
66. CN(C)c1cc(CNC(=O)c2cnccn2)ccn1  -8.01%
67. CCSc1ccc(NC(=O)N2CCCC2c2ccncc2)cn1 (configuration not stated)  -8.21%
68. CCc1nc(CN2CCCC(NCc3nnc(C4CC4)n3C)C2)no1 (configuration not stated)  -8.85%
69. Cc1nc(CN(C)C2CCN(Cc3c(C)noc3C)C2)no1 (configuration not stated)  -8.91%
70. COc1ccc(OC)c(C(=O)N(C)Cc2ncc(C)c(OC)c2C)c1  -9%
71. Cc1nc(CN2CCCC(N(C)Cc3nc(CC(C)C)no3)C2)no1 (configuration not stated)  -9.14%
72. Cc1nc(C)n(C2CCCN(C(=O)c3nc(C)n4ccccc34)C2)n1 (configuration not stated)  -9.2%
73. COc1ccc(F)cc1C(=O)N1CCCC(n2nc(C)nc2C)C1 (configuration not stated)  -9.24%
74. CN(Cc1ccsc1)C(=O)CS(=O)(=O)Cc1ccc(Cl)c(Cl)c1  -9.28%
75. Cc1csc(CNC(=O)N(C)Cc2ccc3c(c2)OCO3)n1  -9.49%
76. OCC1CCCN1c1cc(N2CCN(c3ccccn3)CC2)ncn1 (configuration not stated)  -9.58%
77. Cc1nnc(N2CCC(CS(N)(=O)=O)CC2)c(C#N)c1C  -9.82%
78. CC(C)c1nn(C)c(N(C)C)c1CNCC(O)c1cccc(F)c1 (configuration not stated)  -10%
79. Cc1nc(CN2CCCN(C(=O)c3c(C)oc(C)c3C)CC2)cs1  -10%
80. CCOc1ccc(CC(CNC(=O)c2ccoc2C)C(N)=O)cc1 (configuration not stated)  -10.1%
81. CN(Cc1ncc(-c2ccccc2)o1)CC1CCCN1c1cccnn1 (configuration not stated)  -10.2%
82. Cn1ccc(C(=O)N2CCCC(n3cncn3)C2)cc1=O (configuration not stated)  -10.3%
83. O=C(CCNC(=O)c1ccoc1)Nc1cc(F)cc(F)c1  -10.4%
84. CCc1nc2n(n1)CC(NCc1nc(-c3cccnc3)no1)CC2 (configuration not stated)  -10.5%
85. CN(Cc1nc2c(cnn2C)c(=O)[nH]1)Cc1ccc(F)cc1F  -10.6%
86. CC(O)CN(CC(=O)NC(=O)NCC(F)(F)F)c1ccccc1 (configuration not stated)  -11.1%
87. CN(Cc1cccc(F)c1)C(=O)CS(=O)(=O)Cc1ccc(Cl)c(Cl)c1  -11.2%
88. Cc1nn(C)c(N2CCOCC2)c1CNCc1ccoc1C  -11.3%
89. O=c1n(CCSCc2ccccc2F)nc2ccccn12  -11.3%
90. COc1ccc(C)cc1CSCCn1nc2ccccn2c1=O  -11.5%
91. Cc1nn(C)c(N2CCOCC2)c1CNCc1ccc(C(C)O)cc1 (configuration not stated)  -11.7%
92. COCCOc1ccc(NC(=O)N2CCCC2c2ccncc2)cn1 (configuration not stated)  -11.8%
93. CN(C)c1cc(CNC(=O)c2cccnc2O)ccn1  -12.1%
94. O=C(NCCC(=O)N1CCCc2ccccc21)c1c(F)cccc1F  -12.4%
95. FC(F)(F)c1ccc(CN2CCN(Cc3cscn3)CC2)cc1  -12.5%
96. Cn1cc(Cl)cc1C(=O)N1CCN(Cc2cccs2)CC1  -12.6%
97. CC(OCc1ccccc1)C(=O)NCc1ccc(N(C)C)cc1 (configuration not stated)  -12.6%
98. COCc1cccc(NS(=O)(=O)c2cc(C(=O)O)cs2)c1  -12.7%
99. Cc1nc(C)n(C2CCCN(C(=O)c3cccc4cn[nH]c34)C2)n1 (configuration not stated)  -13.2%
100. CC(C(=O)Nc1ncccn1)N1CCCN(c2nccs2)CC1 (configuration not stated)  -13.8%
101. Cc1oc(C)c(C(=O)NCc2cccnc2)c1C  -14.1%
102. Cc1csc(CNC(=O)NCc2ccc3c(c2)OCCO3)n1  -14.3%
103. NS(=O)(=O)Cc1ccc(CNC(=O)NCC2CCOC2)cc1 (configuration not stated)  -15.3%
104. COc1ccc(F)cc1C(=O)N(C)Cc1cc(C)on1  -15.7%
105. CCc1nc(CN2CCCN(C(=O)CCSC)CC2)cs1  -15.8%
106. Cn1cnnc1C1CCCN(C(=O)NCCNc2ccccn2)C1 (configuration not stated)  -15.9%
107. CCn1nc(C)cc1C(=O)Nc1cc(F)ccc1OCC1CCCO1 (configuration not stated)  -16.3%
108. CN(Cc1nc(N)c2ccccc2n1)CC1CCCN1c1cccnn1 (configuration not stated)  -16.6%
109. O=C(NCCn1nc2ccccn2c1=O)c1cccc2[nH]ncc12  -16.6%
110. Cc1oc(-c2ccco2)nc1CC(=O)N1CCN(CC(C)(C)O)CC1  -17.8%
111. CC(C(=O)NCc1ccc(-n2cncn2)nc1)n1ccnc1 (configuration not stated)  -18%
112. Cc1oc(-c2ccco2)nc1CC(=O)N1CCC(C(O)C(F)(F)F)CC1 (configuration not stated)  -18.3%
113. CC(C)COC(C)C(=O)NCc1ccc(F)cc1 (configuration not stated)  -19.1%
114. CCN(Cc1ccc2c(c1)OCCO2)C(=O)NCc1cc[nH]n1  -20.9%
115. CCc1nnsc1C(=O)N1CCCN(Cc2nccn2C)CC1  -21.7%
116. CCc1nnsc1C(=O)N1CCCN(Cc2cnn(C)c2)CC1  -27.3%
117. CCc1nnc2n1CCN(Cc1csc(-c3ccc(C)o3)n1)C2  -33.2%
